Test results published in US11826368B2 (DAEGU GYEONGBUK INSTITUTE OF SCIENCE AND TECHNOLOGY, priority 2018, dated 2023).

Test system: BV2 microglial cells
Assay: MTT assay for cytotoxicity toward BV2 microglial cells
Type: cell-based
Details: 24 hours
Experimental: Cell viability was assessed using the 3-(4,5-dimethylthiazol-2-yl)-2,5-diphenyltetrazolium bromide (MTT) assay. […] The cells were then treated with 0.5 mg/ml MTT and incubated for 3 hours at 37° C. in a 5% CO2 incubator. Absorbance was read at 580 nm.

With `C=CC(=O)N1CCC[C@@H](n2nc(-c3ccc(Oc4ccccc4)cc3)c3c(N)ncnc32)C1` [ibrutinib] the “cytotoxicity in BV2 microglial cells” value (50 μM) was “cell death was detected” and the “cytotoxicity in BV2 microglial cells” value (concentrations up to 25 μM) was “did not induce cytotoxicity”.
